Laboratory results: patent publication US10576085B2, “Substituted aminopurine compounds, compositions thereof, and methods of treatment therewith” (Signal Pharmaceuticals, LLC, priority 2016, dated 2020)
pIC50: −log10 of the molar value.

Assays:
Test in all cases: Proliferation, CellTiter-Glo, 72 h
Assay type in all cases: cell-based
[1] = test system: SW48; settings: Homo sapiens; SW48, CRC; CTNNB1 (S33Y); EGFR (G179S); β-catenin Active
[2] = test system: Colo 205; settings: Homo sapiens; Colo 205, CRC; BRAF (V600E); β-catenin status N/A
Protocol: HCC cell lines were treated with DMSO or increasing concentrations of Compound 1 for 72 h. Specifically, Compound 1 at various concentrations in dimethyl sulfoxide (DMSO) was spotted via an acoustic dispenser (EDC ATS-100) into an empty 384-well plate. Compound 1 was spotted in a 10-point serial dilution fashion (3-fold dilution) in duplicate within the plate. Replicates of plates spotted with Compound 1 were made for use with different cell lines. After compound plate replication, all plates were sealed (Agilent ThermoLoc) and stored at −20° C. for up to 1 month. When ready for testing, plates were removed from the freezer, thawed, and unsealed just prior to the addition of the test cells.
Prior to testing, cells were grown and expanded in culture flasks to provide sufficient amounts of starting material. Cells were then diluted to the appropriate densities and added directly to the compound-spotted 384-well plates. […] At the time when compound was added (t0), initial cell number was assessed via a viability assay (Cell Titer-Glo) by quantifying the level of luminescence generated by ATP present in viable cells. After 72 h, cell viability of compound-treated cells was assessed via Cell Titer-Glo and luminescence measurement. The apoptotic response to Compound 1 was assessed by quantifying the activities of caspase 3 and caspase 7 (Caspase 3/7-Glo) in treated cells and DMSO control cells. […]

[3] = test system: AGS; settings: Homo sapiens, Gastric, CTNNB1 (G43E), KRAS (G12D), β-catenin Active

Question: Which results are given for `C[C@]1(C(N)=O)CC[C@@H](n2c(Nc3c(Cl)cc(Cl)cc3Cl)nc3cnc(N[C@@H]4CCOC[C@H]4F)nc32)CC1` [Compound 1, cis-4-[2-{[(3S,4R)-3-fluorooxan-4-yl]amino}-8-(2,4,6-trichloroanilino)-9H-purin-9-yl]-1-methyl cyclohexane-1-carboxamide]?
Answer: pIC50 [1]: 8.05; pIC50 [2]: 7.44; pIC50 [3]: 7.55
